Like-named read-outs stand apart in the source and are kept apart here. No end group written: not given here.
How the values were obtained:
soluble H-2K^b = molecular target: T1, soluble H-2K^b (Mus musculus, UniProt P01901); assay: Affinity measurements for binding of peptides to soluble H-2K^b (inhibition assay); details: for increase in peptide affinity compared to MUC1-8 (competition studies): discussion, temperature not stated
T1 construct: heavy chain residues 1-274 with C-terminal His-tag and β2-microglobulin residues 1-99; His-tag (C); made in house; host or cells: Drosophila melanogaster cells
T1 sequence (P01901 22-295): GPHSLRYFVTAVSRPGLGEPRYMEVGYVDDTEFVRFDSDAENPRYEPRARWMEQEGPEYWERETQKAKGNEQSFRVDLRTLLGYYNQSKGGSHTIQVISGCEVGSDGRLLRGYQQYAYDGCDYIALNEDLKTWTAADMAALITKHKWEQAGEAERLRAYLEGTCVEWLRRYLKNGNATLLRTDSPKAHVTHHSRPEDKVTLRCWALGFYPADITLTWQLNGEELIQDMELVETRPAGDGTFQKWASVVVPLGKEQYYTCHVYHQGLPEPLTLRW
T1 sequence (P01887 21-119 partner): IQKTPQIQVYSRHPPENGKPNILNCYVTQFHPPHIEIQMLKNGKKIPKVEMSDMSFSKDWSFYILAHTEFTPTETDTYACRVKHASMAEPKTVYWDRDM
Procedure: The soluble extracellular domains of H-2K^b (heavy chain […]-terminal His-tag and β2-microglobulin […]. melanogaster cells, under the control of a metallothionein promoter as previously described. Briefly, D. melanogaster cells were expanded to large scale (up to 6 L) in serum free Insect Xpress® media (Cambrex Corporation, East Rutherford, N.J., United States of America) and CuSO4 (625 μM final concentration) was added 3-5 days before harvesting to induce expression of H-2K^b. The supernatant was concentrated using a […] tangential flow concentrator (PALL Corporation, East Hills, N.Y., United States of America) using a 10 kDa MWCO membrane (PALL) and then loaded onto an Ni-NTA column and eluted using 10-250 mM imidazole buffer gradient, pH 7.5. […] Affinity measurements for binding of peptides to soluble H-2K^b molecules were performed as previously described.

[1] = test system: MCF7 cells (human MUC1^+ breast cancer cell line); details: HLA-A2 transgenic mice; previous studies [59]; cited from earlier work
[2] = test system: MUC1×HLA-A2 transgenic mice; assay: IFN-γ ELISpot on splenocytes of MUC1×HLA-A2 transgenic mice immunised with peptide-pulsed DC; format: in vivo, mouse; details: for recognition of all peptides higher than MUC1-8: MUC1×HLA-A2 transgenic mice
Procedure: (§1) C57BL/6 (H-2^b) or MUC1×HLA-A2 (H-2^b/H-2^d/HLA-A2) transgenic 6-8 week old mice were used. Bone marrow cells from C57BL/6 or MUC1×HLA-A2 female mice were cultured at 1×10^6 cells/ml in tissue culture media, supplemented with 10 ng/ml GM-CSF/IL-4. At day 6, cells were washed, re-suspended in the same culture media and 20 μg/ml peptides were loaded on DCs for 3 hr. Pulsed DC were washed and 100 μl (1-2×10^6 cells) injected intradermally in female mice into the base of tail. After 14 days mice were boosted and 16 days later splenocytes assessed by ELISpot.
(§2) To assess peptide specific IFN-γ production by CD8^+ T cells to each peptide, splenocytes from immunised mice were used in IFN-γ ELISpot assays. Spleen cells were incubated with 10^−5-10^−10 M of each MUC1 peptide, irrelevant peptide (OVA8, […]; SEQ ID NO: 8) or internal positive control concanavalin A (ConA) for 18 hr at 37° C., 8% CO2 on nitrocellulose plates [pre-coated with an anti-murine IFN-γ monoclonal antibody]. Plates were developed as previously described.

[3] = molecular target: T2, MHC class I, H-2K^b on RMA-S cells (Mus musculus, UniProt P01901); assay: Peptide stabilisation assay using RMA-S cells (FACScan); format: cell-based, murine; details: TAP2-deficient RMA-S cells at 26° C.
T2 construct: MHC class I molecules in the murine cell line RMA-S; endogenous in cells; host or cells: RMA-S (murine, C57BL/6, TAP2-deficient)
T2 sequence (P01901 22-369): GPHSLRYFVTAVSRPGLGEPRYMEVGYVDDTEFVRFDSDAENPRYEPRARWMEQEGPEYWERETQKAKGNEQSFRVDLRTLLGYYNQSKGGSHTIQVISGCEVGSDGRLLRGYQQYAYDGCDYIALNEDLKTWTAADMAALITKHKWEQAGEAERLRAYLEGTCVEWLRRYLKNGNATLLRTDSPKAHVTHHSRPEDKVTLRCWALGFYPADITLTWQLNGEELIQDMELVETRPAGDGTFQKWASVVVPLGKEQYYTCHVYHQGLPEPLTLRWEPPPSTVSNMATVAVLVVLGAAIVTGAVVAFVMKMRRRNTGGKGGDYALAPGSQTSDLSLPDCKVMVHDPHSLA
T2 sequence (P01887 21-119 partner): T1 sequence (P01887 21-119 partner)
Procedure: MHC class I molecules in the murine cell line RMA-S (C57BL/6 TAP2-deficient cells) can be used to measure the direct binding of peptides to class I molecules in vitro. RMA-S cells (5×10^5 cells) were incubated with peptides (10^−4-10^−13 M) at 26° C. for 3 hr then transferred to 37° C. for 30 min. After washing with 0.5% BSA/PBS (2 ml), anti-H-2K^b (HB-158) IgG2a as supernatant (1/50 dilution, 100 μl) was added to RMA-S peptide loaded cells and incubated for 45 minutes at 4° C. The cells were washed once again and 100 μl (1:500 dilution) of FITC-conjugated sheep (Fab′)2 anti-mouse immunoglobulin was added and incubated for 45 min at 4° C.; after further washing, cells were analyzed by FACScan.

C57BL/6 mice = assay: IFN-γ ELISpot on splenocytes of C57BL/6 mice immunised with peptide-pulsed DC; format: in vivo, mouse
Procedure: as §1, §2

HLA-A2 = HLA-A2 (Homo sapiens, UniProt P04439, D140Y/D185E/D98H/E176V/E277Q/G131W/G231S/I119V/I121R/I166T/I218V/L10V/L300P/L318F/N151K/N90K/P208A/P217A/Q86G/Q94H/R138H/R169H/T345S); details: cited from earlier work
[4] = test system: MCF7 cells (human MUC1^+ breast cancer cell line); assay: Standard 51Cr CTL assay after immunisation of HLA-A2/K^b transgenic mice; format: in vivo, mouse; details: HLA-A2 transgenic mice immunised with peptide-KLH-oxidised mannan
Procedure: Peptide was coupled to KLH via glutaraldehyde. In brief, 2 mg KLH in 1 ml phosphate buffer saline (PBS) and 2 mg peptide in 1 ml PBS were mixed and added dropwise to 1 ml of 0.75% glutaraldehyde, and reacted overnight at room temperature. Glutaraldehyde is a bi-functional coupling reagent that links two compounds through their amino groups.
14 mg mannan was dissolved in 1 ml sodium phosphate buffer (pH 6), followed by the addition of 100 μl 0.1 M sodium periodate (dissolved in pH 6 phosphate buffer) and incubated on ice for 1 hour in the dark. 10 μL ethanediol was then added to the mixture and incubated for a further 30 mins on ice. The resultant mixture (oxidised mannan) was passed through a PD-10 column (Sephadex G-25 M column) pre-equilibrated in pH 9.0 phosphate buffer, to exclude out sodium periodate and ethanediol. Oxidised mannan (7 mg/ml) was eluted with 2 ml of pH 9 phosphate buffer, to which 1 mg peptide-KLH was added and allowed to react overnight at room temperature in the dark. Conjugation occurs via Schiff base formation between free amino groups of KLH and oxidised mannan. Samples were used without further purification. […]
HLA-A2/K^b transgenic mice were immunised with 5 μg of peptide intraperitoneally on days 0, 10, 17 and 7-10 days later CTL responses were measured using standard CTL assay as previously described.

[5] = 4° C., means of 5 values, SE 10-15%, read-out: KD 4° C.
[6] = 23° C., means of 5 values, SE 10-15%, read-out: KD 23° C.
[7] = 37° C., means of 5 values, SE 10-15%, read-out: KD 37° C.

Row | Compound | Kd (soluble H-2K^b; [5]) [nM] | Kd (soluble H-2K^b; [6]) [nM] | Kd (soluble H-2K^b; [7]) [nM] | increase in peptide affinity compared to MUC1-8 (competition studies) (soluble H-2K^b) [fold] | peptide concentration at which H-2K^b was stabilised [3] | also measured
1 | CC[C@H](C)[C@H](NC(=O)[C@@H](NC(=O)[C@@H](N)CO)[C@@H](C)CC)C(=O)N[C@@H](CC(N)=O)C(=O)N[C@@H](Cc1ccccc1)C(=O)N[C@@H](CCC(=O)O)C(=O)N[C@@H](CCCCN)C(=O)N[C@@H](CC(C)C)C(=O)O [OVA8, reference compound] | 6 | 10 |  |  |  | 
2 | CC(C)C[C@H](NC(=O)CNC(=O)[C@H](CCC(N)=O)NC(=O)[C@H](Cc1ccc(O)cc1)NC(=O)[C@@H](NC(=O)[C@H](Cc1ccc(O)cc1)NC(=O)CNC(=O)[C@@H](N)CCCNC(=N)N)C(C)C)C(=O)O [VSV8, reference compound] |  |  |  |  |  | Kd (soluble H-2K^b; KD 4° C.): 34 nM; Kd (soluble H-2K^b; KD 23° C.): 27 nM; Kd (soluble H-2K^b; KD 37° C.): 163 nM
3 | DLHWASWV-KLH-oxidised mannan: mimic mutant peptide DLHWASWV conjugated to KLH and oxidised mannan, used as control (also: conjugated to KLH and oxidised mannan) |  |  |  |  |  | CTL lysis of MCF7 cells, in words [1]: able to specifically lyse MCF7 cells
4 | SAPDFRPA [MUC1-8-5F] | 460 | 130 | 4900 | 7 | > 10^−7 M | recognition of all peptides higher than MUC1-8 [2]: 10 fold; increased peptide affinity by mutation of MUC1-8 (soluble H-2K^b; at 23° C. and 37° C.): at least 7 fold
5 | SAPDFRPL [MUC1-8-5F8L] | 160 | 60 | 300 | 14 | > 10^−9 M | T cell response by IFN-γ ELISpot, in words (C57BL/6 mice; C57BL/6 mice): the number of sfu/500,000 was higher; precursor frequency (C57BL/6 mice; after immunisation, mouse strain not given): 400 sfu/500,000 cells; T cell response by IFN-γ ELISpot, in words ([2]; MUC1×HLA-A2 transgenic mice (MUC1-8 is self)): generated even higher affinity T cells which recognised all peptides; increased peptide affinity by mutation of MUC1-8 (soluble H-2K^b; at 23° C.): 14 fold
6 | SAPDTRPA [MUC1-8, reference compound] | 433 | 877 | 37000 |  |  | Kd (soluble H-2K^b; 4° C., read-out: affinity measured in an inhibition assay): 430 nM; Kd (soluble H-2K^b; 23° C., read-out: affinity measured in an inhibition assay): 870 nM
7 | SAPDTRPL [MUC1-8-8L] | 150 | 250 | 8900 | 3 | > 10^−6 M | peptide concentration at which IFN-γ secreting T cells recognised all peptides (C57BL/6 mice; C57BL/6 mice immunised with peptide-pulsed DC): 10^−9-10^−5 M; recognition of all peptides higher than MUC1-8 [2]: 10 fold; increased peptide affinity by mutation of MUC1-8 (soluble H-2K^b; at 23° C. and 37° C.): at least 3 fold
8 | STAPPAHGV (listed as Homo sapiens) |  |  |  |  |  | binding affinity to HLA-A2, in words (HLA-A2): low-medium affinity
9 | TTAPPVHGL (Artifical sequence derived from human or mouse MUC1 T cell epitope) |  |  |  |  |  | CTL lysis of MCF7 cells, in words [4]: lysed MCF7 cells similarly to STAPPAHGV
10 | TTAPPVHGL-KLH-oxidised mannan: peptide TTAPPVHGL coupled to KLH via glutaraldehyde and then to oxidised mannan (also: conjugated to KLH, conjugated to oxidised mannan) |  |  |  |  |  | CTL lysis of MCF7 cells, in words [4]: able to specifically lyse MCF7 cells
